For assay [1], the system named is nuclear chromatin decondensation in PMNs. The assay can be described thus: Nuclear decondensation assay in PMA-treated neutrophils. The note with it: PMA 20 nM; peptides 1 nM, Cl-amidine 10 μM, sivelestat 200 nM. It is filed as cell-based, human. The procedure:
FIG. 7B is a graph depicting nuclear areas that were measured (n=4) using IMAGEJ™ software (mean nuclear pixel area per cell±SEM). Paired Student's t test, *P<0.05, § P=0.057.
FIG. 12A depicts nuclear decondensation (white arrowheads and magnified image) that were assessed as in FIGS. 7A-7E after a 1 hour preincubation in medium alone, with neutrophil elastase (NE) inhibitor sivelestat (SIVL; 200 nM), or with CRISPP or CRISPP-SCR (both 1 nM) followed by treatment with PMA (20 nM) and an additional 1 hour incubation (n=3). Green fluorescence=nuclear DNA, (60× magnification, scale bar=20 μm). Nuclear area was quantified using IMAGEJ™ software (nuclear pixel area per cell±SEM). One way ANOVA with Tukey's post hoc testing; **P<0.01, ***P<0.001.
Nuclear decondensation was identified as described (see Papayannopoulos V, et al., J Cell Biol. 2010; 191 (3):677-91). Five randomly selected high-power visual fields per sample were captured via confocal microscopy and analyzed for nuclear area using the cell-permeable, fluorescent DNA dye SYTO® Green. The nuclear pixel areas of >100 individual cells per high-power field were determined using IMAGEJ™ software (NIH).

Assay [2] relates to nuclear histone H3 citrullination. The assay can be described thus: Histone H3 citrullination in PMA-activated neutrophils (immunocytochemistry). The class given is cell-based, human. To be noted: PMA 20 nM, 15 minutes; peptides 1 nM, Cl-amidine 10 μM. An excerpt: Green fluorescence=citrullinated-histone H3, magenta fluorescence=nuclear DNA (60× magnification; scale bar=20 μm). The right panel depicts Histone H3 citrullination that was quantified using IMAGEJ™ software (mean citrullinated-histone H3 pixel area per cell±SEM) (n=3). One way ANOVA with Tukey's post hoc testing, *P<0.05.
Imaging was accomplished via confocal microscopy using a FV1000 IX81 confocal microscope and FLUOVIEW™ software (OLYMPUS™). Semi-quantitation was accomplished using IMAGEJ™ software (NIH) to determine the average citrullinated histone H3 content per cell.

The target in assay [3] is T1, neutrophil elastase (NE) (Homo sapiens, UniProt P08246).
T1 construct: purchased SIGMA-ALDRICH
T1 sequence (P08246 30-267): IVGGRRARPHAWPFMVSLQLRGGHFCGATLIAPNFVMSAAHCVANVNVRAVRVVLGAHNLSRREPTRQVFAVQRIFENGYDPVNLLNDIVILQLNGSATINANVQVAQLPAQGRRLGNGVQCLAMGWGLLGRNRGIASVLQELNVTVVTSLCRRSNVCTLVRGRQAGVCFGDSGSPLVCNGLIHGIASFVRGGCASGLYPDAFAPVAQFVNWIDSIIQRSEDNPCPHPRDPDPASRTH
The assay can be described thus: Neutrophil elastase activity assay. The class given is biochemical. To be noted: in vitro; (MeOSuc)-AAPV-(pNA) 160 μM, 3 hours, 37° C., and additional assays. The procedure: FIG. 12B depicts NE enzyme activity that was examined by cleavage of the synthetic substrate (MeOSuc)-AAPV-(pNA) to (MeOSuc)-AAPV and (pNA) as products detected by liquid chromatography and chromatogram peak identification by mass spectroscopy. (MeOSuc)-AAPV-(pNA) (160 μm) was incubated with NE (2 mU), sivelestat (160 μm), or NE and sivelestat (left panel) or with NE (2 mU), nNIF ([…]), or NE and nNIF (right panel) for 3 hours at 37° C. Chromatograms are offset on the X and Y axes for ease of comparison. In the presence of NE alone, the (MeOSvc)-AAPV-(pNA) peak was almost completely eliminated and (MeOSvc)-AAPV and (pNA) peaks were generated. […] In contrast, it was not inhibited by nNIF.
Synthetic fluorogenic substrate of NE, (MeOSuc)-AAPV-(pNA) (160 μM), was incubated with bioactive NE (500 nM)±the NE inhibitor, sivelestat (160 μM) or nNIF (50 nM), for 3 hours at 37° C. The reactions were quenched with 5% glacial acetic acid and centrifuged at 14,000 rpm for 5 minutes. Chromatograms were obtained using an AGILENT™ 1100 Series HPLC and a PHENOMENEX® 5 μm C18 LUNA® column (100 Å, 4.6×150 mm) over a 30 minute 10% to 90% B gradient (Buffer A 0.1% TFA in H2O, Buffer B 0.1% TFA in ACN). Mass spectra were obtained for secondary validation of the reaction products using an API® 3500 triple quadrupole mass spectrometer. Chromatograms were offset on both the X and Y axes (by 0.5 minutes and 0.1 A214, respectively) for greater visibility.

Assay [4] has as its system previously-formed NETs. The assay can be described thus: Post-treatment of previously formed NETs (dismantling). It is filed as cell-based, human. The note with it: agent added after LPS stimulation; nNIF, CRISPP 1 nM; DNase 3.78 U/mL. On the procedure:
FIG. 4A is a series of images depicting neutrophils isolated from venous blood of healthy adults that were incubated in medium alone (Control) or activated with LPS (100 ng/mL). CRISPP (1 nM) was added at 0, 30, or 60 minutes after LPS, and the presence of NETs was assessed by live cell imaging as in FIG. 1A after an additional 1 hour of incubation (20× magnification; scale bar=100 μm). The images are representative of three separate experiments.
(§1) For selected experiments, primary PMNs were pre-incubated with autologous plasma, cord blood plasma, nNIF (0.2-70 nM), CRISPP (0.2-70 nM), nNIF-SCR (1 nM), or CRISPP-SCR (1 nM) for one hour prior to stimulation. After pre-incubation and/or stimulation, PMNs were gently washed with PBS and incubated with a mixture of cell permeable (SYTO® Green, MOLECULAR PROBES®) and impermeable (SYTOX® Orange, MOLECULAR PROBES®) DNA fluorescent dyes. Confocal microscopy was accomplished using a FV1000 IX81 confocal microscope and FLUOVIEW™ software (OLYMPUS™). Both 20× and 60× objectives were used. Z-series images were obtained at a step size of 1 μm over a range of 20 μm for each field. FLUOVIEW™ and ADOBE™ PHOTOSHOP™ CS2 software was used for image processing.

The test system of assay [5] is neutrophil extracellular trap (NET) formation. Kind of assay: In vitro NET formation by stimulated human PMNs (live cell imaging, NET-associated histone H3 release). The note with it: for NET formation triggered by LPS: adult PMNs preincubated with agent, LPS 100 ng/mL, 1 hour. The class given is cell-based. On the procedure:
as §1, with “Qualitative assessment of NET formation was performed as previously reported (see Yost C C, et al., Blood. 2009; 113 (25):6419-27 and McInturff A M, et al., Blood. 2012; 120 (15):3118-25). Briefly, primary PMNs isolated from preterm infants, healthy term infants, and healthy adults (2×10^6 cells/mL) were incubated with control buffer or stimulated with indicated agonists or bacteria for 1 hour at 37° C. in 5% CO2/95% air on glass coverslips coated with poly-L-lysine. For” for “For”
Using BSL 2 safety protocols, primary PMNs isolated from healthy adults (2×10^6 cells/mL) were incubated with mock infection buffer or live dengue virus (M010.05) as for live cell imaging. After a 1-hour incubation, the infected PMNs were fixed with 2% p-FA for 10 minutes prior to incubation with fluorescently-labeled, cell-permeable and cell-impermeable DNA dyes, and imaged as for live cell imaging using confocal microscopy.
NET-associated histone H3 content was determined as previously described (see McInturff A M, et al., Blood. 2012; 120 (15):3118-25). After live cell imaging of control and stimulated primary PMNs (2×10^6/mL; various agonists), the cells were incubated with PBS containing DNase (40 U/mL) for 15 minutes at room temperature to break down and release NETs formed in response to stimulation. The supernatant was gently removed and centrifuged at 420×g for 5 minutes. The cell-free supernatant was then mixed 3:1 with 4× Laemmli buffer prior to western blotting. A polyclonal primary antibody against human histone H3 protein (CELL SIGNALING®) and infrared-conjugated secondary antibodies (LI-COR®) were used. Imaging and densitometry were performed on the ODYSSEY® infrared imaging system)(LI-COR®). This assay was previously validated as a surrogate for NET formation under in vitro conditions (see McInturff A M, et al., Blood. 2012; 120 (15):3118-25) as employed in the present studies.
Without being bound by any specific theory, it was hypothesized that placentally expressed HTRA1, a serine protease, regulates the formation of NET-inhibitory peptides through cleavage of AAT. To test this hypothesis, term and preterm placenta were assessed for HTRA1 expression via western blotting. HTRA1 and AAT plasma expression from term and preterm infants and adults were determined by ELISA. Bioactive (0.5 μg) or placental eluted HTRA1 was incubated with AAT (8 μM) for 18 hours at 37° C. Carboxy-terminus fragments of AAT were detected using western blotting and mass spectrometry. The reaction products were incubated for 1 hour with PMNs isolated from healthy adults prior to LPS stimulation (100 ng/mL) and assessed for NET formation using live cell imaging. Reactive oxygen species were assessed using flow cytometry, chemotaxis using a modified Boyden chamber assay, and bacterial killing using E. coli.

For assay [6], the target named is T2, recombinant PAD4 (Homo sapiens, UniProt Q9UM07).
T2 construct: purchased CAYMAN
T2 sequence (Q9UM07 whole entry): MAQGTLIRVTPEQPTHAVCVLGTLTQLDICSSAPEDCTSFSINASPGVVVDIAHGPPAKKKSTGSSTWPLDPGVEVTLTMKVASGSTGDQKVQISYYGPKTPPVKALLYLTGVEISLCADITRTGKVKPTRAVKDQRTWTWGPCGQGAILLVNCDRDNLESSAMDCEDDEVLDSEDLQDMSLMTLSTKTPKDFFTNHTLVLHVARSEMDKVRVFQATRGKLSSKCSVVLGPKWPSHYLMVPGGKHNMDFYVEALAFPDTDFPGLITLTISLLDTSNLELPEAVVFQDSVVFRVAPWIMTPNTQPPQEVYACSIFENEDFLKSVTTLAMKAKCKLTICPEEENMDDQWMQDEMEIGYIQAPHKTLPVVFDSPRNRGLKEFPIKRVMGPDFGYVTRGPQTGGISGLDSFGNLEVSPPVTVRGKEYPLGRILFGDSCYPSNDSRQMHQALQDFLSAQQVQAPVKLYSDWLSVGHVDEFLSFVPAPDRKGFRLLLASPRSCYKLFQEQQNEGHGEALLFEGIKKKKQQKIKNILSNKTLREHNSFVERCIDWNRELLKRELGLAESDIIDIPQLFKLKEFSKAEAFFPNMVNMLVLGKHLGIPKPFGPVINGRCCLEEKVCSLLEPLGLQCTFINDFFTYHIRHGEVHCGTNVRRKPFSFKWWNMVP
The assay can be described thus: Cell-free PAD4 deimination assay. It is filed as biochemical. The note with it: initial comparison of NRPs. On the procedure: One way ANOVA with Tukey's post hoc testing, ***P<0.001.
nNIF inhibition of PAD4 activity was determined using a PAD4 inhibitor screening assay kit (CAYMAN™). Briefly, nNIF (1 nM) was incubated with recombinant PAD4 and PAD4 enzyme substrate (2 mM) in PAD4 assay reagent for 30 minutes at 37° C. […] The reaction was stopped with PAD4 Stop Solution and detected using an included ammonia detector assay. Ammonia detector fluorescence was measured at 470 nm following excitation at 405 nm on a SPECTRAMAX™ M5 fluorescence plate reader (MOLECULAR DEVICES™).

Entries after “also recorded” stand apart in the source; their conditions may differ.

Consider `NC(=O)[C@H](CCCN=C(N)CCl)NC(=O)c1ccccc1` [Cl-amidine, reference compound], for which, in assay [1], the “nuclear decondensation (number of decondensed nuclei)” value was “blocked nuclear decondensation”. Also, the “nuclear histone H3 citrullination” value in assay [2] is “inhibited”.

Regarding `CC(C)(C)C(=O)Oc1ccc(S(=O)(=O)Nc2ccccc2C(=O)NCC(=O)O)cc1` [sivelestat, reference compound], the “nuclear decondensation (number of decondensed nuclei)” value in assay [1] is recorded as “blocks nuclear decondensation”. Moreover, the “NE activity (substrate cleavage)” value in assay [3] is recorded as “inhibited but not eliminated”.

Consider DNase [reference compound], for which the “degradation or dismantling of previously-formed NETs” value in assay [4] is given as “dismantled”.

With “LNTNKTKMGVQFPKMPFFKQIPVNSLEFV (Scrambled Peptide Control) [nNIF-SCR, scrambled control peptide of nNIF, reference compound]”, in assay [5], the “NET formation triggered by LPS” value was “does not”.

Take “MFLEAIPMSIPPEVKFNKPFVFLMIEQNTKSPLFMLKVVS (listed as Homo sapiens) [A1ATm^358]”: in assay [5], the “NET formation triggered by LPS” value is “inhibits NET formation, although with lesser potency than nNIF; also recorded: concentration-dependent pattern of inhibition”. The “relative inhibition of NETosis (order of potency)” value in assay [5] (initial comparison of NRPs) is listed as “nNIF ≈CRISPP>A1ATm^358”. Moreover, the “order of potency of inhibition of PAD4” value in assay [6] was “nNIF ≈CRISPP>A1ATm^358”.

Take “PMVSVAMMLSENIFKLPEVKSVPTEFFPKFINMKLLPFQI (Scrambled Peptide Control) [A1ATm^358-SCR, scrambled A1ATm^358, reference compound]”: the “NET formation triggered by LPS” value in assay [5] is “not”.

As for “SIPPEVKFNKPFVFLMIEQNTKSPLFMGKWNPTQK (listed as Homo sapiens) [HTRA1-CF, synthesized peptide generated by cleavage of A1AT by HTRA1]”, in assay [5] (agonist not stated), the “NET formation (FIG. 14)” value is on record as “inhibits NET formation”.

On to alpha-1-antitrypsin [full-length A1AT], for which, in assay [5], the “NET formation triggered by LPS” value is reported as “did not inhibit NET formation”.

With “recombinant A1AT: active full-length recombinant A1AT from SIGMA-ALDRICH”, the “NET formation triggered by LPS” value in assay [5] is reported as “did not inhibit NET formation”.

For the origin of these results see patent US10857201B2, “NNIF and nNIF-related peptides and related methods” (UNIVERSITY OF UTAH RESEARCH FOUNDATION, priority 2016, dated 2020).
